Common to all, as to type: cell-based, rat
In test [1] the test system is CSM14.1 cells. Description: Primary HTS assay: ATP content (ATPlite) of undifferentiated CSM14.1 cells challenged with thapsigargin. The note with it: for Activity against thapsigargin-induced cell death / cell protection: cell death assay used for primary screening; for IC50: thapsigargin-induced death of undifferentiated CSM14.1, ATP content. From the text: For convenience, and because transient reductions in temperature that might be associated with large screening experiments could restore Large T activity, we elected to develop our HTS using undifferentiated CSM14.1 cells, with the plan to then confirm hits using differentiated cells. For monitoring cell death, we used a commercially available bioluminescence reagent that determines intracellular ATP content, without requirement for complicated cell processing steps (ATPlite, Perkin Elmer). Thus, ATP was used as a surrogate indicator of cell survival for the primary assay.
Undifferentiated or differentiated CSM14.1 cells were plated at a density of 3,000 cells/well in 40 μL DMEM medium (containing 10% serum, 1 mM L-glutamine, and antibiotics) in 96 well flat-bottom microtiter plates composed of polystrene (Greiner Bio One, polystyrene, white wall, flat bottom, lumitrac, high binding). After overnight incubation at 32° C., DMSO (0.5% v/v) or 100 uM Salubrinal (Sal) in DMSO was delivered. After 2 hrs, 5 uL of a stock solution of 150 uM TG in DMEM medium containing 0.75% (v:v) DMSO to achieve a final concentration of approximately 15 uM. After culturing for 24 hrs, cellular ATP content was measured by addition of 20 uL per well of ATPlite solution (Perkin-Elmer), and then the plates were incubated for three minutes at room temperature, before reading with a Microplate Luminometer (BD Pharmingen Moonlight model 3096).
To determine the reproducibility of the ATP content assay, we prepared a 96-well plate in which half the wells received TG plus DMSO (assay minimum) and half received TG plus Salubrinal (assay maximum), then performed the ATP content studies using undifferentiated CSM14.1 cells (FIG. 6). CSM14.1 cells were cultured overnight at 3,000 cells per well in 96-well flat-bottom plates, then either DMSO (0.5% final concentration) or Salubrinal (100 μM) in DMSO (0.5% final concentration) was added to half the well (48 each). After two hrs, TG was added to all wells (15 μM final). Cells were cultured for 24 hrs, then the ATP content was measured using the ATPlite luminogenic assay. We then adapted this assay to the high-throughput environment, using a Biomex™ FX liquid handler for automated dispensing of assay components into microwells of 96-well plates. First, undifferentiated CSM14.1 cells were grown at 32° C. in DMEM medium supplemented with 10% fetal bovine serum (FBS), 1% penicillin/streptomycin, and 1% L-glutamine in 150 mm×25 mm polystyrene culture dishes to produce approximately 3×10^6 cells. Second, CSM14.1 cells were recovered from cultures by trypsinization when at 80-90% confluence, and suspended at 7.5×10^4 cells/mL in DMEM medium containing 2% FBS, 1 mM L-glutamine, and antibiotics 100 IU penicillin 100 μg/ml streptomycin. Third, the cell suspension was then delivered at 40 μL per well of 96-well plastic microtiter plates (Greiner Bio One, polystyrene, white wall, flat bottom, lumitrac, high binding, cat #655074), and the plates were cultured overnight at 32° C. in a humidified atmosphere in 95% air: 5% CO2. Fourth, using the automated liquid handler, 5 μL of test compounds in 10% DMSO were added to wells in columns 2-11 of the 96-well plates (leaving columns 1 and 12 intact) to achieve an approximate final concentration of 15 μg/mL test compound and a final concentration of 1% DMSO. Fifth, 5 μL of 1 mM Salubrinal in a solution of 10% DMSO:90% DMEM was added to wells of column 1/rows A-D of each plate, while 5 μL of 10% DMSO:90% DMEM solution was added to wells corresponding to column 1/rows E-H and to all wells in column 12. Sixth, the plates were returned to culture.
In general terms: In ATP-based viability assays light output follows the ATP content of the culture.

Test [2] has as its system CSM14.1 cells. Description: Annexin V staining viability assay (flow cytometry), thapsigargin-treated undifferentiated CSM14.1 cells. The note with it: hit compounds 25 μM, TG 15 μM. The protocol: Undifferentiated CSM14.1 cells were cultured as for FIG. 16. The next day, DMSO (a, b) (1% final volume), 100 μM Salubrinal (c, d) or 25 μM of hit compounds (1% final DMSO) was added. After two hrs, 15 μM TG was added to all wells except a and c. The plates were returned to culture for 24 hrs, then cells were recovered by trypsinization, transferred to 1.5 ml microcentrifuge tubes, and resuspended in 0.5 mL of Annexin V-binding solution. The percentage of annexin V-negative cells was determined by flow-cytometry (y-axis). Treatments and compounds were the same as in FIG. 16.
One method we have employed, for example, for confirming protection against TG-induced killing uses fluorochrome-conjugated annexin V staining with flow-cytometry analysis to evaluate the percentage cell viability by a method that is independent of the ATP content assay.
FIGS. 16 and 17 show the results of a secondary assay for evaluating the cytoprotective activity of the compounds. In FIG. 16, undifferentiated CSM14.1 cells were cultured at 10^4 cells per well of 24-well plates (Greiner Bio One). The next day, DMSO (a, b) (1% final volume), 100 μM Salubrinal (c, d) or 25 μM of hit compounds (1% final DMSO) was added. After two hrs, 15 μM TG was added to all wells except a and c. A conventional ATP assay was performed to measure survival rate. In FIG. 17 undifferentiated CSM14.1 cells were cultured at 10^4 cells per well of 24-well plates (Greiner Bio One). The next day, DMSO (a, b) (1% final volume), 100 μM Salubrinal (c, d) or 25 μM of hit compounds (1% final DMSO) was added. After two hrs, 15 μM TG was added to all wells except a and c. […] The percentage of annexin V-negative cells was determined by flow-cytometry (y-axis), using a FACSort instrument (Beckton-Dickinson). […]
7) The percentage of annexin V-negative cells was determined by flow-cytometry (y-axis), using a FACSort analysis facility in Burnham (Beckton & Dickinson)
Background: Flow cytometry measures light scatter and fluorescence of single cells or particles in a stream.

A further test deals with phospho-c-Jun. The experiment in a line: Immunoblotting of thapsigargin-induced c-Jun phosphorylation in CSM14.1 cells. The note with it: immunoblotting with phospho-specific antibody, 10 μM, 25 μM hits. From the text: After confirming the pathway selectivity of compounds, additional downstream assays can be performed to map the specific signal transduction pathway inhibited by the compounds. In this regard, various antibody reagents are commercially available for assessing the status of the three major pathways known to be activated by ER stress: (1) PERK, (2) Ire1, and (3) ATF6 (Xu et al., J. Clinical Invest., 115:2656-2664, 2005). Immunoblotting experiments can be performed to assess the expression or phosphorylation (using phospho-specific antibodies) of marker proteins in these pathways. […] CSM 14.1 cells were cultured with DMSO or with 25 μM of hit compounds for two hours, followed by treatment of thapsigargin (15 μM). Cell lysates were prepared and analyzed by SDS-PAGE/immunoblotting using antibodies specific for phospho-c-Jun, phospho-eIF2α, phospho-p38 MAPK, and tubulin (a loading control). CSM14.1 cells were cultured with either DMSO or one of the active compounds at 1, 5, and 10 μM, followed two hours later by 15 μM TG. After two hrs, cell lysates were prepared, normalized for protein content, and either analyzed by SDS-PAGE/immunoblotting using anti-p38-MAPK pan-reactive antibody or phospho-specific antibody with ECL-based detection, followed by densitometry analysis of x-ray films, normalizing phosphor-p38 MAPK relative to total p38 MAPK, or analyzed using a meso-scale instrument from MSD and a procedure in which total p38 MAPK is captured on plates, and the relative amounts of phosphorylated protein were determined using phospho-specific antibody (MSD catalog #K15112D1). […] Suppression of p38 MAPK and c-Jun phosphorylation was dose-dependent, and could not be explained by a decline in total levels of these proteins. […] Proteolytic processing of ATF6 was also not inhibited by our hit compounds. […] Screens of other libraries (such as the NIH compound collection) may yield cytoprotective compounds with different mechanisms.
1) CSM14.1 cells were plated at a density of 2×10^5 cells/well at 6 well dish (Greiner Bio one) in DMEM containing 2% FBS and antibiotics.
2) After overnight incubation, cells were treated by DMSO (0.5%) or compounds (25 μM) for two hours, followed by TG (15 uM) treatment.
3) After two hours, cells were lyzed in 250 uL of lysis buffer and subjected to protein concentration decision, and to SDS PAGE/Western blotting using antibodies specific for phospho p38 MAPK (Cell signaling 9211), p38 MAPK (Santa Cruz-C20), phospho c-Jun (Cell signaling 9164), c-Jun (Santa Cruz-SC 1694), phospho eIF2α (Cell signaling 3597) and α-tubulin.
CSM 14.1 cells were cultured with DMSO or with 25 μM of hit compounds for two hours followed by treatment with thapsigargin (15 μM). Cell lysates were prepared and analyzed by SDS-PAGE/immunoblotting using antibodies specific for: c-Jun, phosphor-c-Jun (ser 73), eIF2a, phosphor-eIF2a (ser 51), p38 MAPK, phosphor-p38 MAPK (Thr180/Tyr182), ATF-6, CHOP and tubulin (loading control). ER stress-induced activation of C-Jun and p38 MAPK is suppressed by the 11 hit compounds.
CSM cells were treated with two compounds at increasing doses. Pre-incubation time, thapsigargin treatment, cell extract preparation and immunoblotting protocols were as described previously.

For test [3], the system named is CSM14.1 cells. The experiment in a line: Pilot dose-response of thapsigargin on undifferentiated CSM14.1 cells (ATP content, vital dye exclusion). How it is done:
In pilot experiments, undifferentiated CSM14.1 cells were plated at various densities in wells of a 96 well plate, cultured overnight, then the ATP content of the cells was measured using the luminogenic ATPlite reagent (FIG. 4A). We also performed dose-response experiments for thapsigargin (FIG. 4B) by culturing CSM14.1 cells at 3,000 cells per well overnight, then treating the cells with various concentrations of TG or Sal and cultured for 18 hrs before determining ATP content (mean ±SD; n=3) (FIG. 4B). Similarly, we performed dose response experiments for Salubrinal (Sal). Cells were plated and cultured as above, then treated with various concentrations of Salubrinal, followed two hrs later by 15 uM TG. Cells were cultured for 18 hrs, then ATP content was determined (mean ±SD; n=3) (FIG. 4C). […] As a control, we employed Salubrinal, which was reported to block ER stress-induced cell death (Boyce et al., Science, 307:935-939, 2005).

The mark [4] stands for this setting: first assay, read-out: IC50 (μM), first value.
[5] abbreviates: second assay (value in bold), read-out: IC50 (μM), value from a second assay.
Where [6] appears, read: one value given, read-out: IC50.

Like-named read-outs stand apart in the source and are kept apart here.

As to `O=C(CN1CC[n+]2c(-c3cccs3)csc21)c1ccccc1.[Br-]` [Compound 5979207], the “Activity against thapsigargin-induced cell death / cell protection” value with CSM14.1 cells [1] is on record as “potent inhibitor of cell death”. Also, the “Protection against TG-induced cell death measured by annexin V staining” value with CSM14.1 cells [2] is “less active”.
Consider `COc1cccc(CN2CCN(C(=O)c3ccc(-c4ccccc4)cc3)CC2)c1` [Compound 5998734], for which the IC50 (usually the concentration that gives 50% inhibition) in the test on CSM14.1 cells [1] (setting [4]) came out at 20 ± 0.493 µM; in the test on CSM14.1 cells [1] (setting [5]), 14.6 ± 26.6 µM. In the test with CSM14.1 cells [2], the “Protection against TG-induced cell death measured by annexin V staining” value is “less active”.
Take `COc1ccc(C2CC(=O)C3=C(C2)Nc2ccccc2NC3c2ccncc2)cc1OC` (centres unmarked) [Compound 6075841]: in the test with CSM14.1 cells [1], the “Activity against thapsigargin-induced cell death / cell protection” value is “inactive”. Also, the concentration for half-maximal inhibition (IC50) in the test on CSM14.1 cells [1] (setting [6]) was greater than 200 µM. The “Thapsigargin-induced phosphorylation of c-Jun” value with phospho-c-Jun is listed as “fail to suppress”.
Regarding `CCCOc1ccc(C2Nc3ccccc3NC3=C2C(=O)CC(c2ccc(OC)c(OC)c2)C3)cc1` (centres unmarked) [Compound 6237877], the IC50 in the test with CSM14.1 cells [1] (setting [4]) was 16.3 ± 0.439 µM; with CSM14.1 cells [1] (setting [6]) it was 12.5 ± 0.17 µM; with CSM14.1 cells [1] (setting [5]), 12.5 ± 0.17 µM. Further, in the test on phospho-c-Jun, the “Thapsigargin-induced phosphorylation of c-Jun” value was “dose-dependent decrease”.
As to `C/C=C(/C)C(=O)O[C@H]1C(C)=C2[C@H]([C@@H]1OC(=O)CCCCCCC)[C@@](C)(OC(C)=O)C[C@H](OC(=O)CCC)[C@@]1(O)[C@H]2OC(=O)[C@@]1(C)O` [thapsigargin], the “reduction in ATP per well” value with CSM14.1 cells [3] (15 μM thapsigargin, 3,000 cells per well, 18 hrs) is reported as roughly 95%. Besides, the cell killing in the test with CSM14.1 cells [3] (15 μM thapsigargin, vital dye exclusion assays) was roughly 95%.

(Values after patent US20080293699A1, “Inhibitors of thapsigargin-induced cell death” (priority 2007, published 2008).)
